Consider 25 compounds from patent publication US9561231B2 (AbbVie Inc., priority 2012, dated 2017).

Assay [1] deals with T1, first (BD1: amino acids K57-E168) bromodomain of BRD4 (Homo sapiens, UniProt O60885).
T1 construct: His-tagged first (BD1: amino acids K57-E168)
The assay is described as follows: TR-FRET bromodomain binding assay, BRD4 BD1. The following applies: Ki calculated from IC50, probe Kd and probe concentration, read-out: TR-FRET Binding Ki: BRD4 (BDI_K57-E168). The essentials: (§1)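 Values are Ki: IC50s from TR-FRET competition with an Alexa647-labeled BET-inhibitor probe were converted using probe Kd and probe concentration. Purified His-tagged bromodomain; pH 6.0 sodium phosphate buffer.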

Assay [2] has as its target T2, second (BD2: amino acids E352-E168) bromodomain of BRD4 (Homo sapiens, UniProt O60885).
T2 construct: protocol
As to the kind of experiment: TR-FRET bromodomain binding assay, BRD4 BD2. The following applies: Ki calculated from IC50, probe Kd and probe concentration, read-out: TR-FRET Binding Ki: BRD4 (BDII_E352-M457). In outline:
as §1

Assay [3] concerns breast cancer cell line MX-1. As to the kind of experiment: MX-1 cell line proliferation assay (3-day). Format: cell-based. The following applies: Homo sapiens, MX1, MX-1 cells, Cell Titer Glo, read-out: Cellular proliferation: EC50. The essentials: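 EC50 derived by sigmoidal fitting of Cell Titer Glo signal relative to DMSO controls. Compound, 3 μM down to 0.0001 μM final in 3-fold steps, was added to adhered MX-1 cells (5000/well, RPMI + 10% FBS) for a 3-day incubation at 37° C.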
(Cellular ATP, detected with luciferase, serves as a proxy for viable cell number.)

Setting [4] is: TR-FRET assay protocol (A-G, compound concentration range).
Where [5] appears, read: TR-FRET assay protocol (D, E or G) per compound.

Like-named read-outs stand apart in the source and are kept apart here.

For orientation: Ki means the equilibrium dissociation constant of an inhibitor or competing ligand from its target. In the case of `CCS(=O)(=O)Nc1ccc(Oc2ccc(OC3COC3)cc2F)c(-c2cn(C)c(=O)cc2OC2COC2)c1` [Example 336, N-{4-[2-fluoro-4-(oxetan-3-yloxy)phenoxy]-3-[1-methyl-4-(oxetan-3-yloxy)-6-oxo-1,6-dihydropyridin-3-yl]phenyl}ethanesulfonamide], the inhibition constant (Ki) was 21.4 nM in assay [1] (setting [4]) and 1.67 nM in assay [2] (setting [4]). Besides, in assay [3] (72 h incubation), the EC50 came to 165 nM.
Regarding `CCOc1cc(=O)n(C)cc1-c1cc(S(=O)(=O)N2CCc3ccccc32)ccc1OCC1CC1` [Example 397, 5-[2-(cyclopropylmethoxy)-5-(2,3-dihydro-1H-indol-1-ylsulfonyl)phenyl]-4-ethoxy-1-methylpyridin-2(1H)-one], the results for the Ki in assay [1] (setting [5]) and in assay [2] (setting [5]) were 75.2 nM and 8.84 nM, respectively. Also, the EC50 in assay [3] (72 hours with compound) amounted to 86.6 nM.
As to `COc1cc(=O)n(C)nc1-c1cc(NS(=O)(=O)C2CCCC2)ccc1Oc1ccccc1` [Example 26, N-[3-(4-methoxy-1-methyl-6-oxo-1,6-dihydropyridazin-3-yl)-4-phenoxyphenyl]cyclopentanesulfonamide], the Ki in assay [1] (setting [4]) was 569 nM; in assay [2] (setting [4]), 104 nM. In addition, the EC50 in assay [3] (72 h incubation) worked out at 800 nM.
Take `COc1cc(-c2cc(=O)n(C)nc2-c2cc(NS(C)(=O)=O)ccc2Oc2ccccc2)ccn1` [Example 58, N-{3-[4-(2-methoxypyridin-4-yl)-1-methyl-6-oxo-1,6-dihydropyridazin-3-yl]-4-phenoxyphenyl}methanesulfonamide]: the Ki was 264 nM in assay [1] (setting [4]) and 63.5 nM in assay [2] (setting [4]). Further, the EC50 in assay [3] (72 h incubation) came to 444 nM.
As to `Cn1cnc(S(=O)(=O)Nc2ccc(Oc3ccccc3)c(-c3ccc(=O)n(C)c3)c2)c1` [Example 227, 1-methyl-N-[3-(1-methyl-6-oxo-1,6-dihydropyridin-3-yl)-4-phenoxyphenyl]-1H-imidazole-4-sulfonamide], the Ki in assay [1] (setting [4]) was 157 nM; in assay [2] (setting [4]), 420 nM. Besides, the EC50 in assay [3] (72 h incubation) was over 3000 nM.
Consider `COc1cc(-c2cc(=O)n(C)nc2-c2ccccc2Oc2ccccc2)ccn1` [Example 57, 5-(2-methoxypyridin-4-yl)-2-methyl-6-(2-phenoxyphenyl)pyridazin-3(2H)-one], for which the figures for the Ki in assay [1] (setting [4]) and in assay [2] (setting [4]) were 598 nM and 250 nM, respectively. In addition, the EC50 in assay [3] (72 h incubation) stood at 1860 nM.
As to `CCS(=O)(=O)Nc1ccc(Oc2ccc(F)cc2F)c(-c2cn(C)c(=O)cc2OC2CC3(CNC3)C2)c1` [Example 326, N-{3-[4-(2-azaspiro[3.3]hept-6-yloxy)-1-methyl-6-oxo-1,6-dihydropyridin-3-yl]-4-(2,4-difluorophenoxy)phenyl}ethanesulfonamide], the Ki in assay [1] (setting [4]) is 2.61 nM; in assay [2] (setting [4]), 17.5 nM. For the same compound, the EC50 in assay [3] (72 h incubation) stood at 2980 nM.
For the compound `CCOc1cc(=O)n(C)cc1-c1cc(NC(=O)c2ccccn2)ccc1Oc1ccc(F)cc1F` [Example 415, N-[4-(2,4-difluorophenoxy)-3-(4-ethoxy-1-methyl-6-oxo-1,6-dihydropyridin-3-yl)phenyl]pyridine-2-carboxamide], the Ki in assay [1] (setting [5]) is 40.5 nM; in assay [2] (setting [5]) it was 33.3 nM. Moreover, the EC50 in assay [3] (72 hours with compound) amounted to 279 nM.
As to `COc1ccccc1Oc1ccc(NS(C)(=O)=O)cc1-c1ccc(=O)n(C)c1` [Example 238, N-[4-(2-methoxyphenoxy)-3-(1-methyl-6-oxo-1,6-dihydropyridin-3-yl)phenyl]methanesulfonamide], the figures for the Ki in assay [1] (setting [4]) and in assay [2] (setting [4]) were 29.2 nM and 49.9 nM, respectively. Also, the EC50 in assay [3] (72 h incubation) came out at 643 nM.
Take `CCOc1cc(=O)n(C)cc1-c1cc(S(=O)(=O)CC)ccc1NC1CC1` [Example 373, 5-[2-(cyclopropylamino)-5-(ethylsulfonyl)phenyl]-4-ethoxy-1-methylpyridin-2(1H)-one]: the Ki is 118 nM in assay [1] (setting [5]) and 167 nM in assay [2] (setting [5]). Also, in assay [3] (72 hours with compound), the EC50 was determined as 859 nM.
Take `CC(C)S(=O)(=O)c1ccc(Oc2ccc(F)cc2F)c(-c2ccc(=O)n(C)c2)c1` [Example 364, 5-[2-(2,4-difluorophenoxy)-5-(propan-2-ylsulfonyl)phenyl]-1-methylpyridin-2(1H)-one]: the Ki in assay [1] (setting [4]) is 84.4 nM; in assay [2] (setting [4]), 153 nM. Moreover, the EC50 in assay [3] (72 h incubation) was found to be 878 nM.
As to `Cn1cc(-c2cc(NS(C)(=O)=O)ccc2Oc2ccc(F)cc2)ccc1=O` [Example 232, N-[4-(4-fluorophenoxy)-3-(1-methyl-6-oxo-1,6-dihydropyridin-3-yl)phenyl]methanesulfonamide], the Ki was 27.8 nM in assay [1] (setting [4]) and 101 nM in assay [2] (setting [4]). Moreover, the EC50 in assay [3] (72 h incubation) is 357 nM.
With `COc1cc(=O)n(C)nc1-c1cc(NS(=O)(=O)Cc2ccccc2)ccc1Oc1ccccc1` [Example 27, N-[3-(4-methoxy-1-methyl-6-oxo-1,6-dihydropyridazin-3-yl)-4-phenoxyphenyl]-1-phenylmethanesulfonamide], the Ki in assay [1] (setting [4]) was 296 nM; in assay [2] (setting [4]), 78.9 nM. The EC50 in assay [3] (72 h incubation) is 720 nM.
For the compound `CCOc1cc(=O)n(C)cc1-c1cc(S(=O)(=O)N2CCc3ccccc32)ccc1Oc1ccc(F)cc1F` [Example 419, 5-[2-(2,4-difluorophenoxy)-5-(2,3-dihydro-1H-indol-1-ylsulfonyl)phenyl]-4-ethoxy-1-methylpyridin-2(1H)-one], the values for the inhibitory constant (Ki) in assay [1] (setting [5]) and in assay [2] (setting [5]) were 25.3 nM and 2.84 nM, respectively. The EC50 in assay [3] (72 hours with compound) was 1000 nM.
Turning to `CCNS(=O)(=O)c1ccc(Oc2ccccc2)c(-c2ccc(=O)n(C)c2)c1` [Example 255, N-ethyl-3-(1-methyl-6-oxo-1,6-dihydropyridin-3-yl)-4-phenoxybenzenesulfonamide], the Ki is 635 nM in assay [1] (setting [4]) and 142 nM in assay [2] (setting [4]). Moreover, the EC50 in assay [3] (72 h incubation) is over 3000 nM.
As for `CCOc1cc(=O)n(C)cc1-c1cc(NS(=O)(=O)CC)ccc1OC1CCC(F)(F)CC1` [Example 385, N-{4-[(4,4-difluorocyclohexyl)oxy]-3-(4-ethoxy-1-methyl-6-oxo-1,6-dihydropyridin-3-yl)phenyl}ethanesulfonamide], the values for the inhibition constant Ki in assay [1] (setting [5]) and in assay [2] (setting [5]) were 55.3 nM and 140 nM, respectively. Moreover, the EC50 in assay [3] (72 hours with compound) turned out to be 254 nM.
With `CC(=O)Nc1ccc(-c2cc(=O)n(C)nc2-c2ccccc2Oc2ccccc2)cc1` [Example 105, N-{4-[1-methyl-6-oxo-3-(2-phenoxyphenyl)-1,6-dihydropyridazin-4-yl]phenyl}acetamide], the Ki in assay [1] (setting [4]) was 516 nM; in assay [2] (setting [4]) it was 84.7 nM. Besides, the EC50 in assay [3] (72 h incubation) was over 3000 nM.
In the case of `CCOC(=O)c1cccc(-c2cc(=O)n(C)nc2-c2ccccc2Oc2ccccc2)c1` [Example 59, ethyl 3-[1-methyl-6-oxo-3-(2-phenoxyphenyl)-1,6-dihydropyridazin-4-yl]benzoate], the Ki is 9790 nM in assay [1] (setting [4]) and 2110 nM in assay [2] (setting [4]). The EC50 in assay [3] (72 h incubation) is over 30000 nM.
For `Cn1cc(-c2cc(NS(C)(=O)=O)ccc2Oc2cccc(F)c2)ccc1=O` [Example 246, N-[4-(3-fluorophenoxy)-3-(1-methyl-6-oxo-1,6-dihydropyridin-3-yl)phenyl]methanesulfonamide] the same measures were 43.1 nM, 132 nM and 238 nM.
With `Cn1cc(-c2cc(NS(C)(=O)=O)ccc2OCC2CCOCC2)ccc1=O` [Example 250, N-[3-(1-methyl-6-oxo-1,6-dihydropyridin-3-yl)-4-(tetrahydro-2H-pyran-4-ylmethoxy)phenyl]methanesulfonamide], the Ki in assay [1] (setting [4]) was 143 nM; in assay [2] (setting [4]), 12500 nM. Further, in assay [3] (72 h incubation), the EC50 was over 3000 nM.
Turning to `Cn1nc(-c2ccccc2Oc2ccccc2)c(-c2ccc(N3CCOCC3)cc2)cc1=O` [Example 149, 2-methyl-5-[4-(morpholin-4-yl)phenyl]-6-(2-phenoxyphenyl)pyridazin-3(2H)-one], the inhibition constant Ki in assay [1] (setting [4]) was 213 nM; in assay [2] (setting [4]), 259 nM. In addition, the EC50 in assay [3] (72 h incubation) turned out to be 384 nM.
The corresponding values for `Cn1cc(-c2cc(NS(C)(=O)=O)ccc2Oc2cccnc2)ccc1=O` [Example 234, N-[3-(1-methyl-6-oxo-1,6-dihydropyridin-3-yl)-4-(pyridin-3-yloxy)phenyl]methanesulfonamide] are 21.3 nM, 216 nM and 1290 nM.
Regarding `CCS(=O)(=O)Nc1ccc(Oc2ccc(F)cc2F)c(-c2c[nH]c(=O)c(C)c2)c1` [Example 264, N-[4-(2,4-difluorophenoxy)-3-(5-methyl-6-oxo-1,6-dihydropyridin-3-yl)phenyl]ethanesulfonamide], the Ki was 33.5 nM in assay [1] (setting [4]) and 55.3 nM in assay [2] (setting [4]). The EC50 in assay [3] (72 h incubation) is 176 nM.
The corresponding values for `Cn1nc(-c2ccccc2Oc2ccccc2)ccc1=O` [Example 1, 2-methyl-6-(2-phenoxyphenyl)pyridazin-3(2H)-one] are 1870 nM, 2050 nM and 20000 nM.
With `CCOc1cc(=O)n(C)cc1-c1cc(NC(=O)c2ccc(NC(C)=O)cc2)ccc1Oc1ccc(F)cc1F` [Example 300, 4-(acetylamino)-N-[4-(2,4-difluorophenoxy)-3-(4-ethoxy-1-methyl-6-oxo-1,6-dihydropyridin-3-yl)phenyl]benzamide], the Ki in assay [1] (setting [4]) is 25.6 nM; in assay [2] (setting [4]), 24.6 nM. Also, in assay [3] (72 h incubation), the EC50 is 291 nM.
